From patent publication US11358960B2, “Pyrazol-3-ones that activate pro-apoptotic BAX” (Dana-Farber Cancer Institute, Inc., priority 2011, dated 2022) come the findings set out here.

Assay [1] addresses T1, recombinant full-length BAX (Homo sapiens, UniProt Q07812).
T1 construct: Recombinant and tagless full-length BAX; made in house; host or cells: Escherichia coli BL21 (DE3)
Briefly: Competitive fluorescence polarization assay: displacement of FITC-BIM SAHB from BAX. It is filed as binding. The settings on record: positive control. Here is the method:
BCL-2 family protein production. Recombinant and tagless full-length BAX, BCL-XLΔC, MCL-1ΔNΔC, and BFL-1/A1ΔC were expressed and purified as previously reported^17,35. Transformed Escherichia coli BL21 (DE3) were cultured in ampicillin-containing Luria Broth and protein expression was induced with 0.5 mM isopropyl β-D-1-thiogalactopyranoside (IPTG). The bacterial pellets were resuspended in buffer (250 mM NaCl, 20 mM Tris, complete protease inhibitor tablet, pH 7.2), sonicated, and after centrifugation at 45,000×g for 45 min, the supernatants were applied to glutathione-agarose columns (Sigma) for GST-BCL-XLΔC, MCL-1ΔNΔC, and BFL-1/A1ΔC, or a chitin column (BioLabs) for Intein-BAX. On-bead digestion of GST-tagged protein was accomplished by overnight incubation at room temperature in the presence of thrombin (75 units) in PBS (3 mL), whereas the intein tag was cleaved from BAX by overnight incubation of the chitin beads at 4° C. with 50 mM DTT. BCL-XLΔC, MCL-1ΔNΔC, and BFL-1/A1ΔC were purified by size exclusion chromatography (SEC) using 150 mM NaCl, 50 mM Tris, pH 7.4 buffer conditions, and full-length monomeric BAX protein isolated by SEC using a Superdex-75 column (GE Healthcare) and 20 mM Hepes pH 7.2, 150 mM KCl buffer conditions.
(§1) Fluorescence polarization binding assays. Fluorescence polarization assays (FPA) were performed as previously described^35,36.
A general note: Polarisation of emitted light reports the rotation of a fluorescent probe.

In the next assay the target is T2, BCL-XL (Homo sapiens, UniProt Q07817).
T2 construct: serial dilutions of full-length BAX, BCL-XLΔC, MCL-1ΔNΔC, or BFL-1/A1ΔC; GST (N, cleaved yes); made in house; host or cells: Escherichia coli BL21 (DE3)
Put plainly: Competitive FPA with FITC-BIM SAHB and BCL-XL. It is filed as binding.
Text: (§2) The BH3 binding pocket of anti-apoptotic targets shares topographic similarities with the BH3 trigger site on BAX, including a hydrophobic groove that engages the hydrophobic face of BH3 helices and a perimeter of similarly oriented charged and polar residues that are complementary to discrete residues of the hydrophilic BH3 interface. The two BH3 binding sites differ in their geographic location, pocket depth, and functionality.
(§3) BCL-2 family protein production. Recombinant and tagless full-length BAX, BCL-XLΔC, MCL-1ΔNΔC, and BFL-1/A1ΔC were expressed and purified as previously reported^17,35. Transformed Escherichia coli BL21 (DE3) were cultured in ampicillin-containing Luria Broth and protein expression was induced with 0.5 mM isopropyl β-D-1-thiogalactopyranoside (IPTG). The bacterial pellets were resuspended in buffer (250 mM NaCl, 20 mM Tris, complete protease inhibitor tablet, pH 7.2), sonicated, and after centrifugation at 45,000×g for 45 min, the supernatants were applied to glutathione-agarose columns (Sigma) for GST-BCL-XLΔC, MCL-1ΔNΔC, and BFL-1/A1ΔC, or a chitin column (BioLabs) for Intein-BAX. […]
as §1

The target of another assay is T3, MCL-1 (Homo sapiens, UniProt Q07820).
T3 construct: serial dilutions of full-length BAX, BCL-XLΔC, MCL-1ΔNΔC, or BFL-1/A1ΔC; GST (N, cleaved yes); made in house; host or cells: Escherichia coli BL21 (DE3)
Briefly: Competitive FPA with FITC-BIM SAHB and MCL-1. The assay is classed as binding.
Text: as §2, §3, §1

The target of another assay is T4, BFL-1/A1 (Homo sapiens, UniProt Q16548).
T4 construct: serial dilutions of full-length BAX, BCL-XLΔC, MCL-1ΔNΔC, or BFL-1/A1ΔC; GST (N, cleaved yes); made in house; host or cells: Escherichia coli BL21 (DE3)
T4 sequence (Q16548 1-151 limits assumed): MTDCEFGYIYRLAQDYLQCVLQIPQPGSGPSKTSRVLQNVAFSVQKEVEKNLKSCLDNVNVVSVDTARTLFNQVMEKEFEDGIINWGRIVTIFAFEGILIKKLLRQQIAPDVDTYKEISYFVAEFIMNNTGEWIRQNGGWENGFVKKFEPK
Briefly: Competitive FPA with FITC-BIM SAHB and BFL-1/A1. It is filed as binding.
Text: as §2, §3, §1

Assay [2] relates to DHL5 diffuse large B-cell lymphoma (DLBCL) cells. Briefly: DHL5 cell viability assay (CellTiter-Glo). It is filed as cell-based. The settings on record: for cell viability: single agent, 24 hours.
Assay [3] concerns BCL-XL-dependent leukemia cell line. Put plainly: Caspase 3/7 and cell death in BCL-XL-dependent leukemia cell line. The assay is classed as cell-based.
The subject of assay [4] is MCL-1 dependent leukemia cell line. Briefly: Caspase 3/7 and cell death in isogenic MCL-1 dependent leukemia cell line. The assay is classed as cell-based.
The test system of assay [5] is Bak−/− MEFs. Briefly: Cell viability assay in Bak-/- MEFs (CellTiter-Glo). The assay is classed as cell-based, mouse. The settings on record: Bak−/− MEFs (express only BAX), 24 hours. (In general: In ATP-based viability assays light output follows the ATP content of the culture.)
A further assay has as its system Bax−/−Bak−/− MEFs. Put plainly: Cell viability assay in Bax-/-Bak-/- MEFs (CellTiter-Glo). The settings on record: 24 hours. It is filed as cell-based, mouse.
For assay [6], the system named is Bak−/− MEFs. Put plainly: Light microscopy (live cell imaging) of Bak-/- MEFs. The assay is classed as cell-based, mouse. The settings on record: BAM7 15 μM, time lapse. The method, then:
Light microscopy. MEFs (5,000 cells/well) were plated for 24 hours on glass bottom culture dishes (MatTek Corp., MA) and then incubated with BAM7 (15 μM) or vehicle (0.15% DMSO). Live cell imaging was performed using a TE2000-E2 Nikon microscopy equipped with a temperature and CO2-controlled chamber that maintained an atmosphere of 3-5% humidified CO2 at 37° C. A Hamamatsu Orca ER digital CCD camera was used to capture images at 20× magnification for 24 hours at 20 min intervals. Acquisition, hardware control, and image analysis was performed using Nikon NIS-Elements software.

A further assay concerns leukemia cells. Put plainly: Leukemia cell viability (anti-leukemic activity). The assay is classed as cell-based. The settings on record: FIGS. 15-17.

Each structure is given as a SMILES string.

T3 sequence (Q07820 170-327 limits assumed, species assumed): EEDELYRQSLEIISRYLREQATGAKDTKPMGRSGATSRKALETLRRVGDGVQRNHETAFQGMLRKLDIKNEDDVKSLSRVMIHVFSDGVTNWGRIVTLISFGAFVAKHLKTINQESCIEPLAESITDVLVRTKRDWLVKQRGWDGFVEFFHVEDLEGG
T2 sequence (Q07817 1-212 limits assumed, species assumed): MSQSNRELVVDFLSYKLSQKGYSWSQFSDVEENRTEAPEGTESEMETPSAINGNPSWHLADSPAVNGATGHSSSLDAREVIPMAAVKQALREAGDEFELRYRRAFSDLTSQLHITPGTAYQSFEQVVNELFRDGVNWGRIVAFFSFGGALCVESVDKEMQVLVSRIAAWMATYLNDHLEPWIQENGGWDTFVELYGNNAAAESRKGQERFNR
T1 sequence (Q07812 whole entry): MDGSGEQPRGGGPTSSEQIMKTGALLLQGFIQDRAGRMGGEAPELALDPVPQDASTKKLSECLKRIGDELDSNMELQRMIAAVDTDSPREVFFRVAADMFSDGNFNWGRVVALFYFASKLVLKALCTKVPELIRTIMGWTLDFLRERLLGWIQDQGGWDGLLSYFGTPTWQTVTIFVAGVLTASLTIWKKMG

Regarding `CC[C@H](C)[C@H](NC(C)=O)C(=O)N[C@@H](Cc1c[nH]c2ccccc12)C(=O)N[C@H](C(=O)N[C@@H](C)C(=O)N[C@@H](CCC(N)=O)C(=O)N[C@@H](CCC(=O)O)C(=O)N[C@@H](CC(C)C)C(=O)N[C@@H](CCCNC(=N)N)C(=O)N[C@@]1(C)CCCC=CCCC[C@@](C)(C(=O)N[C@@H](Cc2ccccc2)C(=O)N[C@@H](CC(N)=O)C(=O)N[C@@H](C)C(=O)N[C@@H](Cc2ccc(O)cc2)C(=O)N[C@@H](Cc2ccc(O)cc2)C(=O)N[C@@H](C)C(=O)N[C@@H](CCCNC(=N)N)C(=O)N[C@@H](CCCNC(=N)N)C(N)=O)NC(=O)[C@H](CC(=O)O)NC(=O)CNC(=O)[C@H]([C@@H](C)CC)NC1=O)[C@@H](C)CC` [Ac-BIM SAHB, reference compound], the IC50 stood at 314 nM in assay [1]; 572 nM on BCL-XL (competitive FPA, read-out: IC50, competition with FITC-BIM SAHB for binding to BCL-XL); 136 nM on MCL-1 (competitive FPA, read-out: IC50, competition with FITC-BIM SAHB for binding to MCL-1); 603 nM at BFL-1/A1 (competitive FPA, read-out: IC50, competition with FITC-BIM SAHB for binding to BFL-1/A1).

For `CN(C)CC[C@H](CSc1ccccc1)Nc1ccc(S(=O)(=O)NC(=O)c2ccc(N3CCN(Cc4ccccc4-c4ccc(Cl)cc4)CC3)cc2)cc1[N+](=O)[O-]` [ABT-737, reference compound], the cell viability result in [2] was “relatively resistant”. In addition, the “effect of added ABT-737 on the response to BAM7” value in assay [2] (subcytotoxic dose of ABT-737 added to BAM7) is “further sensitized the cells to BAM7”. Further, the cell death result in assay [3] was “induces cell death”; in assay [4] it was “significant resistance”.

Consider `CCOc1ccccc1NN=C1C(=O)N(c2nc(-c3ccccc3)cs2)N=C1C` [BAM7, 4-(2-(2-ethoxyphenyl)hydrazono)-3-methyl-1-(4-phenylthiazol-2-yl)-1H-pyrazol-5(4H)-one], for which, at BCL-XL (up to 50 μM dosing), the “competition with FITC-BIM SAHB for BCL-XL (in words)” value is reported as “little to no anti-apoptotic binding interactions”. The “competition with FITC-BIM SAHB for MCL-1 (in words)” value at MCL-1 (up to 50 μM dosing) is reported as “little to no anti-apoptotic binding interactions”. Besides, on BFL-1/A1 (up to 50 μM dosing), the “competition with FITC-BIM SAHB for BFL-1/A1 (in words)” value is “little to no anti-apoptotic binding interactions”. The cell viability entry in the assay on Bak−/− MEFs [5] was “dose-responsively impaired the viability”; in the assay with Bax−/−Bak−/− MEFs it was “did not affect the viability”; in assay [2], “dose-responsive impairment of cell viability”. Besides, the “morphologic features of apoptosis” value with Bak−/− MEFs [6] is given as “characteristic microscopic features of apoptosis”. In addition, the “effect of BAM7 on the response to ABT-737” value in assay [2] (BAM7 10 μM plus ABT-737) is “sensitized DHL5 cells to ABT-737”. In addition, in the assay with leukemia cells, the anti-leukemic activity entry was “anti-leukemic activity”.
